Measurements: patent publication US11040052B2, “Methods and pharmaceutical compositions for modulating autophagy in a subject in need thereof” (INSERM (INSTITUT NATIONAL DE LA SANTE ET DE LA RECHERCHE …, priority 2013, dated 2021)
“Also recorded” adds a separate entry of the source. Read-outs that look alike come from different tables or passages of the source.

Key:
[1] = system: autophagy in mice tissues; test: Autophagy induction in tissues of fed mice (LC3 lipidation, p62, GFP-LC3 dots); format: in vivo
Procedure: (§1) C57BL/6 mice (Charles River Laboratory, Lentilly, France) were bred and maintained according to both the FELASA and the Animal Experimental Ethics Committee Guidelines (Val de Marne, France). Mice were housed in a temperature-controlled environment with 12 h light/dark cycles and received food and water ad libitum. For HC-related experiments, mice were injected intraperitoneally with a single 100 mg/kg dose and 6 h later were sacrificed and tissues were immediately frozen in liquid nitrogen. For DCA- and DMKG-related experiments, mice were subjected to 24 h starvation and injected intraperitoneally each 8 h with a 100 mg/kg of either DCA or DMKG solution prepared in PBS. After 24 h of starvation, mice were sacrificed and tissues were immediately frozen in liquid nitrogen after extraction and homogenized two cycles for 20 s at 5,500 rpm using Precellys 24 tissue homogenator (Bertin Technologies, Montigny-le-Bretonneux, France) in a 20 mM Tris buffer (pH 7.4) containing 150 mM NaCl, 1% Triton X-100, 10 mM EDTA and Complete® protease inhibitor cocktail (Roche Applied Science). Tissue extracts were then centrifuged at 12,000 g at 4° C. and supernatants were collected. Protein concentration in the supernatants was evaluated by the bicinchoninic acid technique (BCA protein assay kit, Pierce Biotechnology, Rockford, Ill.). For hydroxycitrate-related weight-loss experiments, autophagy-deficient Atg4b^−/− mice were used. Atg4b^−/− mice have been previously described (Mariño et al., 2010). For HC-, spermidine-, and resveratrol-related experiments (tumour growth) mice were intraperitoneally injected with respectively 100 mg/kg, 50 mg/kg and 100 mg/kg doses at day 8 and day 9. At day 9, mice were intraperitoneally injected with 2 mg/kg single dose of Mitoxanthrone. For starvation related experiment (tumour growth) mice were treated as previously described (Fabrizio et. al., 2010).
To avoid post-mortem autophagy induction, dead mice were immediately perfused with 4% paraformaldehyde (w:v in PBS, pH 7.4). Tissues were then harvested and further fixed with the same solution for at least 4 h, followed by treatment with 15% sucrose (w:v in PBS) for 4 h and with 30% sucrose (w:v in PBS) overnight. Tissue samples were embedded in Tissue-Tek OCT compound (Sakura Finetechnical Co. Ltd., Tokyo, Japan) and stored at −70° C. Five μm-thick tissue sections were prepared with a CM3050 S cryostat (Leica Microsystems GmbH, Wetzlar, Germany), air-dried for 1 h, washed in PBS for 5 min, dried at RT for 30 min, and mounted with VECTASHIELD anti-fading medium. In each organ, the number of GFP-LC3 dots was counted in five independent visual fields from at least five mice using a TCS SP2 confocal fluorescence microscope (Leica Microsystems GmbH).
Six weeks old female C57BL/6, Balb/c and nude athymic mice (Harlan Laboratory, Gannat, France) were bred and maintained according to both the FELASA and the Animal Experimental Inserm Ethics Committee Guidelines (project: 2012-69). Mice were housed in a temperature-controlled environment with 12 h light/dark cycles and received food and water ad libitum. For tumor growth experiments, procedures adopted are described as follows: 3×10^5 tumor cells were subcutaneously inoculated; when tumors became palpable (day −1 before chemotherapy), mice were first intraperitoneally injected with 100 mg/kg Potassium Hydroxycitrate, 10 mg/kg Acetylsalicylic Acid, 30 mg/kg SB204990, 30 mg/kg c646, 5 mg/kg Rapamycin, 25 mg/kg Resveratrol, 50 mg/kg Spermidine. At day 0, mice were intraperitoneally injected with the abovementioned compounds and with 5.17 mg/Kg Mitoxanthrone or 5 mg/kg Oxaliplatin. Tumor size was measured every two days. For starvation experiments, mice underwent 48 hour fasting followed by intreperitoneal injection of chemotherapeutics. […]

MCA205 tumor = test: Growth of transplantable tumors with chemotherapy; format: in vivo, mice; conditions: for tumor growth, combined with oxaliplatin: data not shown; for tumor growth, combined with MTX: immunocompetent wild type mice, agent given before and with mitoxanthrone; for tumor growth, combined with MTX, immunodeficient mice: nu/nu (nude athymic) mice
Procedure: as §1
Six weeks old female C57BL/6, Balb/c and nude athymic mice (Harlan Laboratory, Gannat, France) were bred and maintained according to both the FELASA and the Animal Experimental Inserm Ethics Committee Guidelines (project: 2012-69). Mice were housed in a temperature-controlled environment with 12 h light/dark cycles and received food and water ad libitum. For tumor growth experiments, procedures adopted are described as follows: 3×10^5 tumor cells were subcutaneously inoculated; when tumors became palpable (day −1 before chemotherapy), mice were first intraperitoneally injected with 100 mg/kg Potassium Hydroxycitrate, 10 mg/kg Acetylsalicylic Acid, 30 mg/kg SB204990, 30 mg/kg c646, 5 mg/kg Rapamycin, 25 mg/kg Resveratrol, 50 mg/kg Spermidine. At day 0, mice were intraperitoneally injected with the abovementioned compounds and with 5.17 mg/Kg Mitoxanthrone or 5 mg/kg Oxaliplatin. Tumor size was measured every two days. For starvation experiments, mice underwent 48 hour fasting followed by intreperitoneal injection of chemotherapeutics. For autophagy induction study, 6 hours after CRMs administration, mice were sacrificed and tissues were snap-frozen in liquid nitrogen after extraction and homogenized two cycles for 20 s at 5,500 rpm using Precellys 24 tissue homogenator (Bertin Technologies, Montigny-le-Bretonneux, France) in a 20 mM Tris buffer (pH 7.4) containing 150 mM NaCl, 1% Triton X-100, 10 mM EDTA and Complete® protease inhibitor cocktail (Roche Applied Science, Penzberg, Germany). Tissue extracts were then centrifuged at 12,000 g at 4° C. and supernatants were collected. Protein concentration in the supernatants was evaluated by the bicinchoninic acid technique (BCA protein assay kit, Pierce Biotechnology, Rockford, US.

AMPK, mTORC1 = test: Immunoblot of AMPK phosphorylation and mTORC1 activity (p70s6k phosphorylation); format: cell-based, human; conditions: nutrient-depleted (starved) cells in vitro
Procedure: For immunoblotting, 25 μg of proteins were then separated on 4-12% Bis-Tris acrylamide (Invitrogen) or 12% Tris-Glycine SDS-PAGE precast gels (Biorad, Hercules, USA) and electrotransferred to ImmobilonTM membranes (Millipore Corporation, Billerica, USA). Membranes were then sliced in different parts according to the molecular weight of the protein of interest to allow simultaneous detection of different antigens within the same experiment. […] Development was performed with appropriate horseradish peroxidase (HRP)-labeled secondary antibodies (Southern Biotech, Birmingham, USA) plus the SuperSignal West Pico chemoluminescent substrate (Thermo Scientific-Pierce). An anti-glyceraldehyde-3-phosphate dehydrogenase antibody (Chemicon International, Temecula, USA) was used to control equal loading of lanes.

SMILES	autophagy in vivo (LC3 lipidation, p62, GFP-LC3) [1]	tumor growth, combined with MTX (MCA205 tumor)	tumor growth, combined with MTX, immunodeficient mice (MCA205 tumor)	AMPK phosphorylation and mTORC1 activity in starved cells (AMPK, mTORC1)	also measured
O=C(O)CC(O)(C(=O)O)C(O)C(=O)O (stereo not shown) [HC, hydroxycitrate]	induced an increase in autophagic flux in vivo; also recorded: strongly stimulated autophagy both in vitro and in vivo; also recorded: triggered a systemic autophagic response comparable to that induced by starvation; also recorded: similarly efficient as a starvation period of 48 h	mimics the effects of 48 h fasting in delaying subcutaneous MCA205 tumor growth; also recorded: improves the efficacy of chemotherapy and significantly reduces tumor growth of MCA205 cells in wild type; also recorded: similarly improved tumor growth reduction by MTX; also recorded: more efficient than monotherapy with MTX	not in immunodeficient nu/nu mice		autophagy in vivo (LC3 lipidation, p62, GFP-LC3) ([1]; listed as Hydroxycitrate): elicits autophagy in mice muscle after 6 hours; autophagy in vivo (LC3 lipidation, p62, GFP-LC3) ([1]; listed as hydroxycitrate): triggered a systemic autophagic response comparable to that induced by starvation; tumor growth, combined with MTX, autophagy-deficient tumors (MCA205 tumor; MCA205 cells with Atg5 or Atg7 shRNA): tumor growth control is lost; also recorded: largely therapy-resistant; tumor growth, combined with oxaliplatin (MCA205 tumor): caused superior tumor growth reduction, but only in WT, not in nu/nu mice; tumor growth, combined with oxaliplatin (MCA205 tumor; listed as hydroxycitrate): improved the therapeutic outcome of treatments with MTX (FIG. 8G) or oxaliplatin; tumor growth, combined with MTX (MCA205 tumor; listed as hydroxycitrate): enhanced the tumor growth-inhibitory effect of chemotherapy as efficiently as did starvation; also recorded: improved the therapeutic outcome of treatments with MTX; tumor growth, combined with MTX, CD39-expressing tumors (MCA205 tumor; tumors engineered to express the ecto-ATPase CD39, data not shown): lost its therapeutic efficacy
CC(C)CC(=O)C(=O)O [KIC, ketoisocaproic acid]				inhibition of AMPK phosphorylation and reversion of mTORC1 dephosphorylation; also recorded: prevented starvation-associated mTORC1 inhibition and AMPK activation	
O=C(O)CCCCC1CCSS1 (stereo not shown) [LA, lipoic acid]				blunted starvation-induced mTORC1 inhibition, AMPK activation	
CC1=NN(c2ccc(C(=O)O)cc2)C(=O)/C1=C\c1ccc(-c2cc(C)c(C)cc2[N+](=O)[O-])o1 [c646]	elicits autophagy in mice muscle after 6 hours; also recorded: induced autophagy both in vitro, in cultured cells, and in vivo, in mice	can enhance chemotherapy efficacy	failed		tumor growth, combined with MTX (MCA205 tumor; listed as C646): HC could be replaced
